# Measurements from patent US20160279199A1, “PHARMACEUTICAL COMPOSITION FOR TREATING A METABOLIC SYNDROME” (Sanofi, priority 2010, published 2016).
# No end group written: not given here.
# What was measured:
# Type 2 diabetic patients = details: cited from earlier work; for fasting hyperglycaemia: doses elevating plasma concentrations to approximately 3-4 fold physiological postprandial levels, Type 2 diabetic patients
# db/db mice [1] = assay: Fed blood glucose during treatment of db/db mice; format: in vivo, mouse; details: s.c. once daily (AVE0010 0.05, FGF-21 0.75, combination 0.75+0.05 mg·kg−1·day−1), up to 4 weeks, FIG. 6
# Procedure: (§1) Female db/db mice (BKS.Cg-m +/+ Leprdb/J, age of 6 weeks) were treated with vehicle (PBS), 0.05 mg·kg^−1·day^−1 AVE0010, 0.75 mg·kg^−1·day^−1 recombinant human FGF-21 (SEQ ID NO: 2) or a combined dose of FGF-21 (SEQ ID NO: 2) and AVE0010 (SEQ ID NO:9), (0.75+0.05 mg·kg^−1·day^−1) subcutaneously once daily. Mice were fed ad libitum. Before the first treatment, after one week and 4 weeks blood glucose and HbA1c were measured under fed conditions. After 21 days of treatment an oral glucose tolerance test (OGTT) was initiated. Fasted mice were orally challenged with 2 g·kg^−1 glucose solution and blood glucose was measured at indicated time points.
# db/db mice [2] = assay: Oral glucose tolerance test (OGTT) in treated db/db mice; format: in vivo, mouse; details: after 21 days s.c. once daily (AVE0010 0.05, FGF-21 0.75, combination 0.75+0.05 mg·kg−1·day−1), fasted, 2 g·kg−1 oral glucose, vs vehicle treated obese control, FIG. 5
# Procedure: as §1
# [3] = human subjects with Type 2 diabetes
substance,measurement,setting,value
"GLP-1: gut peptide glucagon-like peptide-1, an incretin hormone (HAEGTFTSDVSSYLEGQAAKEFIAWLVKGR; ends and bridges not checked; UniProt P01275 98-127, looked up)",blood glucose,Type 2 diabetic patients; [3],reduces
same,insulin secretion,Type 2 diabetic patients; [3],stimulates
"GLP-1(7-36 amide): bioactive GLP-1, amino acid sequence SEQ ID NO: 4 (HAEGTFTSDVSSYLEGQAAKEFIAWLVKGR-NH2)",fasting hyperglycaemia,Type 2 diabetic patients,fully normalizes
"GLP-1(7-27): bioactive GLP-1 form as printed in b13 (HAEGTFTSDVSSYLEGQAAKE; Glucagon-like peptide 1; UniProt P01275 98-118, looked up, fragment)",fasting hyperglycaemia,Type 2 diabetic patients,fully normalizes
"AVE0010: GLP-1R agonist peptide, amino acid sequence SEQ ID NO: 9 [reference compound]",blood glucose,db/db mice [1],inhibition of blood glucose increase
same,glucose tolerance (OGTT),db/db mice [2],small improvement in glucose tolerance
